# What was measured:
# [1] = system: Enterococcus faecalis (ATCC 51299); assay type: in vitro ADME; conditions: tested concentrations; OD600
# Procedure: (§1) Enterococcus faecalis (ATCC 51299, BNCC) was cultured in modified brain heart infusion (BHI) broth supplemented with L-cysteine HCl (0.5 g/L), vitamin K1 (10 mg/L), hemin (5 mg/L) and resazurin (1 mg/L). Limosilactobacillus reuteri (JCM 1112, Guangdong Academy of Sciences) was cultured in MRS medium at 37 °C in an anaerobic chamber (5%H2, 5%CO2 and 90%N2). Drug metabolism assays were performed in 96-well plates under optimal growth conditions for each strain. […] Each experiment comprised three biological replicates, including a bacteria-free control. The growth of strains was monitored by measuring OD600 (Eon Microplate Spectrophotometer, BioTek) every 2 h for the first 10 h, followed by 12 to 24 h intervals until 72 h. Supernatants were withdrawn at 6, 12, 24, 48, and 72 h. The remaining drug content and the formation of E-3179 were quantified via UHPLC-TQ-MS. The sample preparation for quantitative analysis was the same as in section 2.3.
# [2] = Stability of the analytes in rat plasma at different storage conditions; assay type: in vitro ADME
# Procedure: Analysis of QC samples was performed according to a standard curve, which was obtained from freshly prepared calibration standard samples. The autosampler stability was determined by placing samples in the autosampler rack at 8 ℃ for 24 h. The freeze-thaw stability was evaluated after three complete freeze-thaw cycles (-80 ℃ to 25 ℃) on consecutive days. The short-term stability was determined after samples were exposed to room temperature for 6 h. The long-term stability was assessed after storing the samples at -80 ℃ for 30 days. The analytes were considered stable if the deviation between the mean measured concentration and the nominal concentration was within ± 15.0%.
# gut microbiota from SHRs = test: Anaerobic incubation of drug with fecal gut microbiota from SHRs; assay type: in vitro ADME, rat; conditions: for Qualitative analysis: metabolism to other compounds: SHR gut microbiota in vitro, UHPLC-Q-TOF-MS; for Remaining content: SHR gut microbiota, 40 μM drug, anaerobic 37 °C, mGAM
# Procedure: Fresh fecal samples from WKYs and SHRs were collected and immediately transferred to an anaerobic chamber (90% N₂, 5% CO₂, 5% H₂). Fecal suspensions were prepared by homogenizing 1 g of feces in 15 mL of sterile phosphate-buffered saline containing 0.1% L-cysteine. […] Bacteria-free controls contained equivalent drug volumes consistently. […] Drug remaining content and non-target metabolites screen were detected by ultra-high performance liquid chromatography coupled with triple quadrupole mass spectrometry (UHPLC-TQ-MS) and ultra-high performance liquid chromatography with quadrupole time-of-flight mass spectrometry (UHPLC-Q-TOF-MS), respectively. The sample preparation process can be found in the Supplementary material. For UHPLC-Q-TOF-MS analysis, the MS parameters and IDA criteria can be seen in Supplementary Table S1.
# The sample processing procedures were tailored to align with the experimental objectives. For qualitative metabolite profiling, supernatants from the co-incubation of bacteria and drugs were collected at designated time points, filtered using a 0.22 μm membrane, lyophilized, and reconstituted in 200 μL of methanol. After vortexing and centrifuging for 10 minutes at 4°C and 12,000 rpm, the supernatant was transferred to an LC vial, and 5 μL aliquot was injected into the UHPLC-Q-TOF-MS/MS. For quantitative analysis, 100 μL aliquots were taken from the co-incubation supernatant and spiked with 1,000 μL of methanol containing 500 ng/mL of irbesartan. Following one minute of vortexing and centrifugation at 12,000 rpm for 10 minutes, the resulting supernatant was transferred to an LC vial, and a 5μL aliquot was injected into the UHPLC-TQ-MS/MS.
# [3] = system: Limosilactobacillus reuteri (JCM 1112); test: Co-incubation of drug with L. reuteri (degradation, growth); assay type: in vitro ADME; conditions: tested concentrations; OD600
# Procedure: as §1
# [4] = autosampler for 24 h (8 ℃), high nominal conc. (losartan 8000, E-3174 4000, E-3179 1600 ng/mL)
# [5] = autosampler for 24 h (8 ℃), low nominal conc. (losartan 0.2, E-3174 10, E-3179 0.4 ng/mL)
# [6] = autosampler for 24 h (8 ℃), middle nominal conc. (losartan 2000, E-3174 1000, E-3179 400 ng/mL)
# [7] = room temperature for 6 h, high nominal conc. (losartan 8000, E-3174 4000, E-3179 1600 ng/mL)
# [8] = room temperature for 6 h, low nominal conc. (losartan 0.2, E-3174 10, E-3179 0.4 ng/mL)
# [9] = room temperature for 6 h, middle nominal conc. (losartan 2000, E-3174 1000, E-3179 400 ng/mL)
# [10] = three freeze-thaw cycles, high nominal conc. (losartan 8000, E-3174 4000, E-3179 1600 ng/mL)
# [11] = three freeze-thaw cycles, low nominal conc. (losartan 0.2, E-3174 10, E-3179 0.4 ng/mL)
# [12] = three freeze-thaw cycles, middle nominal conc. (losartan 2000, E-3174 1000, E-3179 400 ng/mL)
# [13] = −80°C for 30 days, high nominal conc. (losartan 8000, E-3174 4000, E-3179 1600 ng/mL)
# [14] = −80°C for 30 days, low nominal conc. (losartan 0.2, E-3174 10, E-3179 0.4 ng/mL)
# [15] = −80°C for 30 days, middle nominal conc. (losartan 2000, E-3174 1000, E-3179 400 ng/mL)
Compound,Inhibition of growth of E. faecalis [1],"Stability RE [2, 4] [%]","Stability RE [2, 5] [%]","Stability RE [2, 6] [%]","Stability RE [2, 7] [%]","Stability RE [2, 8] [%]","Stability RE [2, 9] [%]","Stability RE [2, 10] [%]","Stability RE [2, 11] [%]","Stability RE [2, 12] [%]","Stability RE [2, 13] [%]","Stability RE [2, 14] [%]","Stability RE [2, 15] [%]",Qualitative analysis: metabolism to other compounds (gut microbiota from SHRs),Remaining content (gut microbiota from SHRs; 0 h) [µM],Remaining content (gut microbiota from SHRs; 12 h) [µM],Remaining content (gut microbiota from SHRs; 24 h) [µM],Remaining content (gut microbiota from SHRs; 48 h) [µM],Inhibition of growth of L. reuteri [3]
CCCCc1nc(Cl)c(C(=O)O)n1Cc1ccc(-c2ccccc2-c2nnn[nH]2)cc1 [E-3174],did not inhibit the growth,2.69,-4.63,-1.40,0.27,3.95,11.23,5.22,0.33,8.12,5.50,1.75,5.09,neither losartan nor E-3174 was metabolized to other compounds,38.21 ± 0.11,39.55 ± 2.13,35.95 ± 1.41,27.07 ± 6.32,did not inhibit the growth
"CCCCc1nc(Cl)c(CO)n1Cc1ccc(-c2ccccc2-c2nn[nH]n2)cc1 [Losartan, Losartan potassium]",did not inhibit the growth,8.67,-4.05,12.50,5.37,12.66,10.42,6.18,-2.68,9.49,4.25,-7.51,12.98,neither losartan nor E-3174 was metabolized to other compounds,37.62 ± 1.03,38.41 ± 2.14,33.51 ± 2.35,32.98 ± 2.19,did not inhibit the growth
